Values joined by “and” are separate entries in the source; they are usually repeats but may differ in a detail not shown here. Equal entries are not always repeated. Values belong to the compound of their own block, whether it stands above or below them.
Legend:
[1] = instrument: TW, calibrated with phosphatidylcholines (ESI+) and phosphatidylethanolamines (ESI-)
[2] = instrument: DT, single field, calibrated with Agilent tune mix (Agilent)
[3] = instrument: DT, stepped-field
[4] = [M+Na]+; instrument: DT; stepped-field

Compound: CCCCCCCCCCCCC=CC[C@@H](O)[C@H](CO)NC(=O)CCCCCCCCCCCCCCCCCCCCC [Cer(d18:1/22:0)]
collision cross section (N2) ([1]; [M+H]+): 271.8 Å²
collision cross section (N2) ([1]; [M-H]-): 262 Å²

Compound: CCCCCCCCCCCCC=CC[C@@H](O)[C@H](CO[C@@H]1O[C@H](CO)[C@@H](O)C(O)C1O)NC(=O)CCCCCCCCCCCCCCCCCCCCC (some centres undefined) [GlcCer(40:1)]
collision cross section (N2) ([2]; [M+HCOO]-): 294.5 Å²
collision cross section (N2) ([2]; [M+H]+): 295.1 Å²
collision cross section (N2) ([2]; [M+Na]+): 296.5 Å²
collision cross section (N2) ([3]; [M+Na]+): 301.1 Å²

Compound: CCCCCCCCCCCCC=CC[C@@H](O)[C@H](CO)NC(=O)CCCCCCCCCCCCCCCCCCC [Cer(d18:1/20:0)]
collision cross section (N2) ([1]; [M+H]+): 266.5 Å²
collision cross section (N2) ([1]; [M-H]-): 255.8 Å²

Compound: CCCCCCCCCCCCC=CC[C@@H](O)[C@H](CO)NC(=O)CC=CCCCCCCCCCCCCCC [Cer(d18:1/18:1)]
collision cross section (N2) ([1]; [M+H]+): 257.6 Å²
collision cross section (N2) ([1]; [M-H]-): 248.5 Å²

Compound: CCCCCCCCCCCCCCCC/C=C\OC[C@@H](O)COP(=O)([O-])OCC[NH3+] [LPE(p18:0)]
collision cross section (N2) ([1]; [M+H]+): 222.5 Å²
collision cross section (N2) ([1]; [M+Na]+): 222 Å²
collision cross section (N2) ([1]; [M-H]-): 211.4 Å²

Compound: CCCCCCCCCCCCC=CC[C@@H](O)[C@H](CO)NC(=O)CCCCCCCCCCCCCCCCCCCCC [Cer(d18:0/22:1)]
collision cross section (N2) ([1]; [M+H]+): 271.9 Å²

Compound: CCCCCCCCCCCCC=CC[C@@H](O)[C@H](CO[C@@H]1O[C@H](CO)[C@@H](O)C(O)C1O)NC(=O)CCCCCCCCCCCCCCCCC (some centres undefined) [GlcCer(36:1)]
collision cross section (N2) ([2]; [M+HCOO]-): 283.3 Å²
collision cross section (N2) ([2]; [M+H]+): 284.1 Å²
collision cross section (N2) ([2]; [M+Na]+): 283.5 Å²
collision cross section (N2) ([3]; [M+Na]+): 286.7 Å²

Compound: CCCCCCCCCCCCC=CC[C@@H](O)[C@H](CO)NC(=O)CCCCCCCCCCCCCCCCCCCCCCC [Cer(d18:1/24:0)]
collision cross section (N2) ([1]; [M+H]+): 279.1 Å²
collision cross section (N2) ([1]; [M-H]-): 268 Å²

Compound: CC/C=C\C/C=C\C/C=C\C/C=C\C/C=C\CCCCCC(=O)O[C@@H](CO)COC(=O)CCCC/C=C\C/C=C\C/C=C\CCCCC [DG(20:4/20:4)]
collision cross section (N2) ([1]; [M+H-H2O]+): 262.6 Å²

Compound: CCCCCCCCCCCCCCCCCCCCCC(=O)O[C@@H](CO)COC(=O)CCCCCCCCCCCCC [DG(18:0/18:0)]
collision cross section (N2) ([1]; [M+H-H2O]+): 270.5 Å²

Compound: CCCCCCCCCCCCCCCC(=O)O[C@@H](CO)COC(=O)CCCCCCCCCCC [DG(14:0/14:0)]
collision cross section (N2) ([1]; [M+H-H2O]+): 242.3 Å²

Compound: CCCCCCCCCCCCC=CC[C@@H](O)[C@H](CO[C@@H]1O[C@H](CO)[C@@H](O)C(O)C1O)NC(=O)CCCCCCCCCCCCCCCCCCCCCCC (some centres undefined) [GlcCer(42:1)]
collision cross section (N2) ([2]; [M+HCOO]-): 299.4 Å²
collision cross section (N2) ([2]; [M+H]+): 301.5 Å²
collision cross section (N2) ([2]; [M+Na]+): 302.8 Å²
collision cross section (N2) ([3]; [M+Na]+): 307.5 Å²

Compound: CCCCCCCCCCCCC=CC[C@@H](O)[C@H](CO[C@@H]1O[C@H](CO)[C@@H](O)C(O)C1O)NC(=O)CC=CCCCCCCCCCCCCCCCCCCCCCC (some centres undefined) [GlcCer(44:2)]
collision cross section (N2) ([3]; [M+Na]+): 315.3 Å²

Compound: CCCCCCCCCCCCC=CC[C@@H](O)[C@H](CO[C@@H]1O[C@H](CO)[C@@H](O)C(O)C1O)NC(=O)CCCCCCCCCCCCCCCCCCCCCC (some centres undefined) [GlcCer(41:1)]
collision cross section (N2) ([2]; [M+H]+): 298.5 Å²
collision cross section (N2) ([3]; [M+Na]+): 302.5 Å²

Compound: CC(C)[C@H](NC(=O)CN)C(=O)N[C@@H](Cc1ccccc1)C(=O)N[C@@H](CCCNC(=N)N)C(=O)O [GVFR]
collision cross section (N2) ([3]; [M+H]+): 214.8 Å²

Compound: CCCCCCCCCCCCCCCCCCCC(=O)N[C@@H](CO[C@@H]1O[C@H](CO)[C@@H](O)C(O)C1O)[C@H](O)CCCCCCCCCCCCCCC (some centres undefined) [GlcCer(38:0)]
collision cross section (N2) ([3]; [M+Na]+): 295.6 Å²

Now from value to compound:

collision cross section (N2) ([1]; [M+H]+): 302.2 Å²
Compound: CCCCCCCCCCCCC=CC[C@@H](O)[C@H](COP(=O)([O-])OCC[N+](C)(C)C)NC(=O)CCCCCCCCCCCCCCCCCCCCCCC [SM(d18:1/24:0)]

collision cross section (N2) ([1]; [M-H]-): 279 Å²
Compound: CCCCC/C=C\C/C=C\C/C=C\CCCCCCC(=O)OC[C@H](COP(=O)(O)OC[C@H](N)C(=O)O)OC(=O)CCCCCCC/C=C\C/C=C\CCCCC [PS(38:5)]

collision cross section (N2) ([1]; [M+H]+): 282.6 Å²
collision cross section (N2) ([1]; [M+Na]+): 282.2 Å²
Compound: CCCCCCCCCCCCC=CC[C@@H](O)[C@H](CO[C@@H]1O[C@H](CO)[C@@H](O)C(O)C1O)NC(=O)CCCCCCCCCCCCCCCCC (some centres undefined) [GlcCer(d18:1/18:0)]

collision cross section (N2) ([1]; [M+Na]+): 292.4 Å²
Compound: CCCCC/C=C\C/C=C\C/C=C\CCCCCCC(=O)O[C@H](COC(=O)CCCC/C=C\C/C=C\C/C=C\CCCCC)COP(=O)(O)O[C@H]1C(O)C(O)C(O)[C@@H](O)C1O (some centres undefined) [PI(38:6)]

collision cross section (N2) ([2]; [M+H]+): 290.8 Å²
collision cross section (N2) ([3]; [M+Na]+): 294.8 Å²
Compound: CCCCCCCCCCCCC=CC[C@@H](O)[C@H](COP(=O)([O-])OCC[N+](C)(C)C)NC(=O)CCCCCCCCCCCCCCCCCC [SM(37:1)]

collision cross section (N2) ([1]; [M+H]+): 292.2 Å²
Compound: CCCCCCCCCCCCC=CC[C@@H](O)[C@H](COP(=O)([O-])OCC[N+](C)(C)C)NC(=O)CCCCCCCCCCCCCCCCCCC [SM(d18:1/20:0)]

collision cross section (N2) ([2]; [M+H]+): 286.4 Å²
collision cross section (N2) ([3]; [M+K]+): 297.7 Å²
Compound: CCCCCCC/C=C\CCCCCCCC(=O)OC[C@H](COP(=O)([O-])OCC[N+](C)(C)C)OC(=O)CCCCCCC/C=C\CCCCCCCC [PC(35:2)]

collision cross section (N2) ([1]; [M+H]+): 299.7 Å²
collision cross section (N2) ([1]; [M+Na]+): 299.1 Å²
Compound: CCCCCCCCCCCCC=CC[C@@H](O)[C@H](CO[C@@H]1O[C@H](CO)[C@@H](O)C(O)C1O)NC(=O)CCCCCCCCCCCCCCCCCCCCCCC (some centres undefined) [GlcCer(d18:1/24:0)]

collision cross section (N2) ([1]; [M+H]+): 300.7 Å²
Compound: CCCCCCCCCCCCC=CC[C@@H](O)[C@H](COP(=O)([O-])OCC[N+](C)(C)C)NC(=O)CC=CCCCCCCCCCCCCCCCCCCCC [SM(d18:1/24:1)]

collision cross section (N2) ([1]; [M+H]+): 287.8 Å²
Compound: CCCCCCCCCCCCC=CC[C@@H](O)[C@H](CO[C@@H]1O[C@H](CO)[C@@H](O)C(O)C1O)NC(=O)CCCCCCCCCCCCCCCCCCC (some centres undefined) [GlcCer(d18:1/20:0)]

collision cross section (N2) ([1]; [M+H]+): 280.2 Å²
Compound: CC/C=C\C/C=C\C/C=C\C/C=C\C/C=C\C/C=C\CCC(=O)OC[C@H](COP(=O)(O)OCCN)OC(=O)CCC/C=C\C/C=C\C/C=C\C/C=C\C/C=C\CC [PE(42:11)]

collision cross section (N2) ([2]; [M+H]+): 294.6 Å²
collision cross section (N2) ([3]; [M+Na]+): 299.9 Å²
Compound: CCCCCCCCCCCCC=CC[C@@H](O)[C@H](COP(=O)([O-])OCC[N+](C)(C)C)NC(=O)CC=CCC=CCCCCCCCCCCCCCCC [SM(40:3)]

collision cross section (N2) [4]: 203.23 Å²
collision cross section (N2) ([3]; [M+Cs]+): 205.8 Å²
collision cross section (N2) ([3]; [M+H]+): 202.6 Å²
collision cross section (N2) ([3]; [M+K]+): 221.9 Å²
collision cross section (N2) ([3]; [M+Li]+): 202.9 Å²
collision cross section (N2) ([3]; [M+Na]+): 202.7 Å²
collision cross section (N2) ([3]; [M+Rb]+): 204.1 Å² and 219.2 Å²
Compound: OC[C@H]1O[C@@](CO)(O[C@H]2O[C@H](CO)[C@@H](O)[C@H](O)[C@H]2O)[C@@H](O[C@H]2O[C@H](CO)[C@@H](O)[C@H](O)[C@H]2O)[C@@H]1O [Melezitose]

collision cross section (N2) ([1]; [M+H]+): 292.5 Å²
Compound: CCCCCCCCCCCCCCCCCCC(=O)O[C@H](COC(=O)CCCCCCCCCCCCCCCC)COP(=O)([O-])OCC[N+](C)(C)C [PC(36:0)]

collision cross section (N2) ([3]; [M+Na]+): 311.5 Å²
Compound: CCCCC/C=C\C/C=C\C/C=C\C/C=C\CCCCCC(=O)O[C@H](COC(=O)CCCCCCCCC/C=C\CCCCCCCCCC)COP(=O)(O)OC[C@H](N)C(=O)O [PS(44:5)]

collision cross section (N2) ([1]; [M+H-H2O]+): 295.5 Å²
Compound: CCCCCCCC/C=C\CCCCCCCC(=O)OC[C@H](COP(=O)(O)O[C@H]1C(O)C(O)C(O)[C@@H](OP(=O)(O)O)C1O)OC(=O)CCCCCCC/C=C\CCCCCCCC (some centres undefined) [PIP(36:2)]

collision cross section (N2) ([1]; [M+H]+): 293.2 Å²
collision cross section (N2) ([1]; [M+Na]+): 294.3 Å²
Compound: CCCCCCCCCCCCC=CC[C@@H](O)[C@H](CO[C@@H]1O[C@H](CO)[C@@H](O)C(O)C1O)NC(=O)CCCCCCCCCCCCCCCCCCCCC (some centres undefined) [GlcCer(d18:1/22:0)]

collision cross section (N2) ([3]; [M+Na]+): 299.2 Å²
Compound: CC/C=C\C/C=C\C/C=C\C/C=C\C/C=C\C/C=C\CCC(=O)OC[C@H](COP(=O)(O)OC[C@H](N)C(=O)O)OC(=O)CCCCCCC/C=C\CCCCCCCCC [PS(41:7)]

collision cross section (N2) ([3]; [M+Na]+): 312 Å²
Compound: CCCCCCCCCCCCC=CC[C@@H](O)[C@H](COP(=O)([O-])OCC[N+](C)(C)C)NC(=O)CC=CCC=CCCCCCCCCCCCCCCCCCCC [SM(44:3)]

collision cross section (N2) ([2]; [M+H]+): 297.4 Å²
collision cross section (N2) ([3]; [M+Na]+): 301.6 Å²
Compound: CCCCCCCCCCCCC=CC[C@@H](O)[C@H](COP(=O)([O-])OCC[N+](C)(C)C)NC(=O)CCCCCCCCCCCCCCCCCCCC [SM(39:1)]

collision cross section (N2) ([3]; [M+Na]+): 306.8 Å²
Compound: CCCCC/C=C\C/C=C\C/C=C\C/C=C\CCCCCC(=O)OC[C@H](COP(=O)(O)OC[C@H](N)C(=O)O)OC(=O)CCCCC/C=C\C/C=C\C/C=C\C/C=C\CCCCC [PS(44:8)]

collision cross section (N2) ([3]; [M+Na]+): 293.7 Å²
Compound: CCC=CCC=CCC=CCC=CCC=CCC=CCC(=O)OC[C@H](COP(=O)(O)OC[C@H](N)C(=O)O)OC(=O)CC=CCC=CCC=CCC=CCC=CCC=CCC [PS(42:12)]

collision cross section (N2) ([3]; [M+H]+): 291.7 Å²
Compound: CCC(C)[C@H](NC(=O)[C@H](CC(N)=O)NC(=O)[C@H](CCC(=O)O)NC(=O)[C@H](C)NC(=O)[C@H](CC(C)C)NC(=O)[C@@H](N)CC(N)=O)C(=O)N[C@@H](CO)C(=O)N[C@@H](CCCNC(=N)N)C(=O)O (some centres undefined) [NLAENISR]

collision cross section (N2) ([3]; [M+K]+): 295.9 Å²
Compound: CCCCC/C=C\C/C=C\CCCCCCCCCC(=O)OC[C@H](COP(=O)(O)OCCN)OC(=O)CCCCCCCCCCCCCCCCCC [PE(39:2)]

From the C3SDB collision cross section collection
